Results published in US10617664B2, “Brain derived PPARα ligands” (Rush University Medical Center, priority 2015, dated 2020).

Tests used:
[1] = tested on: PPRE-driven luciferase activity; assay: PPRE-luciferase assay in Ppara-null astrocytes transduced with Ppara constructs; format: cell-based, mouse; details: Ppara-null astrocytes (empty vector)
Experimental: Astrocytes plated at 60-70% confluence were transfected with tk-PPREx3-Luc, a PPRE-dependent luciferase reporter construct. After 24 h of transfection, cells were treated with different concentrations of HEX (FIG. 10A), OCT (FIG. 10B) and HMB (FIG. 10C) for 4 h followed by monitoring luciferase activity. Under similar experimental condition, MTT was performed to understand the effect of these ligands on cell viability (FIG. 10D, HEX; FIG. 10E, OCT; FIG. 10F, HMB). Results are mean±SD of three independent experiments. ^ap<0.001 vs. control. Ppara-null astrocytes were transduced with lentivirions containing empty vector (FIG. 10G), FL-Ppara (FIG. 10H), Y314D-Ppara (FIG. 10I), Y464D-Ppara (FIG. 10J), and Y314D/Y464D-Ppara (FIG. 10K) for 48 h followed by transfection with tk-PPREx3-Luc. After 24 h of transfection, cells were treated with different doses of HEX, OCT and HMB for 4 h followed by monitoring luciferase activity. PPRE luciferase activity was assayed in Ppara-null astrocytes transduced with lentivirions containing empty vector (FIG. 10L), FL-Ppara (FIG. 10M), Y314D-Ppara (FIG. 10N), Y464D-Ppara (FIG. 10O), and Y314D/Y464D-Ppara (FIG. 10P) after treatment with different doses of WY14643, fenofibrate, and clofibrate. PPRE luciferase activity was assayed in primary hippocampal neurons transduced with lentivirions containing empty vector (FIG. 10Q), FL-Ppara (FIG. 10R), Y314D-Ppara (FIG. 10S), Y464D-Ppara (FIG. 10T), and Y314D/Y464D-Ppara (FIG. 10U) after treatment with different doses of HEX, OCT and HMB. Results are mean±SD of three independent experiments. ^ap<0.001 vs. control.

[2] = tested on: PPRE-driven luciferase activity; assay: PPRE-luciferase assay in Pparb-null astrocytes with PPARγ antagonist GW9662; format: cell-based, mouse; details: for PPRE luciferase activity: Pparb-null astrocytes; for effect of GW9662 on ligand-mediated increase in PPRE-luciferase activity: Pparb-null astrocytes pre-treated with GW9662
Experimental: FIG. 16A) Pparb-null primary astrocytes plated at 60-70% confluence in 12-well plates were transfected with 0.25 μg of tkPPREx3-Luc (a PPRE-dependent luciferase reporter construct). Twenty-four hours after transfection, cells were treated with different concentrations of GW9662 for 30 min followed by stimulation with rosiglitazone. After 4 h, luciferase activities were assayed. […] After transfection, cells were also treated with GW9662 followed by stimulation with OCT (FIG. 16B), HEX (FIG. 16C) and HMB (FIG. 16D).
These astrocytes were pre-treated with PPARγ-antagonist GW9662 to nullify the involvement of PPARγ in reporter assay.

[3] = biological target: T1, PPARα (Mus musculus, UniProt P23204); assay: Thermal shift assay, full length PPARα with ligands; format: binding; details: full length protein with ligand; protein only x=45.96321
T1 construct: GFP; made in house; host or cells: not clearly stated (lentivirus packaged in HEK293FT cells)
T1 sequence (P23204 1-468): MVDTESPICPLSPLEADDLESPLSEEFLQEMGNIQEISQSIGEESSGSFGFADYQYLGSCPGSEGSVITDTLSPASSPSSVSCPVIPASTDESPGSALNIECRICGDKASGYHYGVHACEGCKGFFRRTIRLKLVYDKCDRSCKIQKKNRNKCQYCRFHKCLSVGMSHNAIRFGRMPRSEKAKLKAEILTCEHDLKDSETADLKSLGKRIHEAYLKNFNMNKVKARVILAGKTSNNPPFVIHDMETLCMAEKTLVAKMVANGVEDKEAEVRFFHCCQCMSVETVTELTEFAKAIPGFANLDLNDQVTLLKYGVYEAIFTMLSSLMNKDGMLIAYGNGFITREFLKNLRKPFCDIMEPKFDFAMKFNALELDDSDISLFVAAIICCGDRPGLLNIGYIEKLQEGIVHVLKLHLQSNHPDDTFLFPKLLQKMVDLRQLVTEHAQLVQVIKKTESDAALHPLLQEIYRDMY
Experimental: Lentivirus-mediated de novo expression studies were performed, where wild type full-length (GFP-FLPpara) was overexpressed and three different LBD-mutated PPARα (GFP-Y314D, GFP-Y464D and GFP-Y314D/Y464D Ppara) recombinant proteins (FIG. 9D) were expressed in neurons followed by binding analyses with three endogenous ligands. Briefly, site directed mutagenesis was performed in the mouse PPARα with Y314 and Y464 residues replaced separately or together with aspartate (D). After that, the entire mouse GFP-Ppara gene (GFP-FLPpara) and three different mutated genes were cloned in the pLenti6/V5-TOPO lentiviral expression vector (FIG. 3D), packaged in lentivirus particle with HEK293FT cells, purified full length and mutated PPARα proteins in a GFP-affinity column, and finally thermal shift assays were performed in order to analyze their conformational stability. […] After 48 h of transduction, the cells were homogenized, passed through GFP-affinity column, eluted, fractionated with chloroform-methanol, and finally analyzed by GC-MS for the detection of ligands. […] On the other hand, mutation of the Y464 completely knocked down the ligand binding affinity as we observed profound loss of ligand binding in both lenti-GFP-Y464D-Ppara (FIG. 3K, FIG. 9K) and lenti-GFP-Y314D/Y464D-Ppara (FIG. 3L, FIG. 9L)-transduced Ppara-null neurons. Throughout these analyses, we used 2,4-bis (α, α-dimethyl benzyl) phenol as an internal standard (Supplementary FIG. 5A-F). We normalized peak area of different ligands with that of internal standard and then quantified the binding affinity of these ligands with different construct of PPARα by peak integration statistics (Table 1).
Thermal shift assays were performed in Applied Biosystems 7500 standard real-time thermal cycler machine with commercially available thermal shift dye kit (Life technologies; Cat #4461146). For each reaction, purified protein (0.5 μg to 1 μg) was added to 18 μL of thermal shift buffer provided with the kit, and 1-2 μL of dye. […]

CCCCCCCCCCCCCCCC(N)=O [HEX, hexadecanamide]
PPRE-driven luciferase activity [1]: remained unable to induce
PPRE luciferase activity [2]: markedly increased
effect of GW9662 on ligand-mediated increase in PPRE-luciferase activity [2]: remained unable to inhibit
x at y=50 of thermal shift curve (melting temperature) [3]: 59.2835

CCOC(=O)C(C)(C)C(C)O (stereo not drawn) [HMB]
PPRE-driven luciferase activity [1]: remained unable to induce
PPRE luciferase activity [2]: markedly increased
effect of GW9662 on ligand-mediated increase in PPRE-luciferase activity [2]: remained unable to inhibit
x at y=50 of thermal shift curve (melting temperature) [3]: 58.49

CCCCCCCCC=CCCCCCCCC(N)=O [OCT, 9-octadecenamide]
PPRE-driven luciferase activity [1]: remained unable to induce
PPRE luciferase activity [2]: markedly increased
effect of GW9662 on ligand-mediated increase in PPRE-luciferase activity [2]: remained unable to inhibit
x at y=50 of thermal shift curve (melting temperature) [3]: 59.6128
